# In patent US9433663B2, “Mobilization of hematopoietic stem cells” (Children's Hospital Medical Center, priority 2008, dated 2016):
# Experiments:
# N-RasMA93 cells = experiment: F-actin reorganization of N-RasMA93 leukemia cells; assay type: cell-based, human; conditions: in vitro
# Description: FIG. 5A. SDF-1α induced F-actin polymerization without or with gradient CASIN pre-treatments was determined by MFI using FACS analysis.
# Like normal HSCs, their malignant counterpart, leukemia initiating cells (LICs) reside in their BM niches that provide the structural and physiological conditions supporting their survival and growth. LICs are resistant to traditional chemotherapy by interacting with their BM microenvironment, which are the culprits of leukemia relapses after a period of remission induced by chemotherapy. Detachment of LICs from their niche by CASIN would be a valuable supplementary therapy to the traditional cancer therapies (e.g., chemotherapies). First of all, in vitro effects of CASIN were examined in adhesion, migration, and F-actin polymerization of LICs, each of which is independently important for the retention of LICs in BM niches. Retroviral transduction of an MLL-AF9 fusion cDNA together with N-Ras oncogene into normal human CD34^+cord blood cells led to the establishment of cultures of N-Ras-MA93 cells that can initiate acute myeloid leukemia in NOG mice. […] To address it, a human AML model was set up by transplanting N-RasMA93 cells into NOG mice intravenously.
# Cdc42 = Cdc42 (Mus musculus, UniProt P60766); experiment: Example 7 effector pull-down in LDBM and HCB cells, Cdc42; assay type: cell-based, murine LDBM and human HCB cells; parameters: endogenous in cells; host or cells: murine LDBM cells and human CD34+ HCB cells
# Sequence of Cdc42 (P60766 1-188 limits assumed): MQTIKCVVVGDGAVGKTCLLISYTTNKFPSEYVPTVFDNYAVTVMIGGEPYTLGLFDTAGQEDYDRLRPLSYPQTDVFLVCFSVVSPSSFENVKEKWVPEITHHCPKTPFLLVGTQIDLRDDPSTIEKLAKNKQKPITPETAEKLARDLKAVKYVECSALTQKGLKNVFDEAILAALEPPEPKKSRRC
# Description: To exclude the inhibitory effect of CASIN on other Rac isoforms, Rho GTPases, and Ras, broader effector pull-down experiments are performed on these possible candidates with gradient doses of CASIN in LDBM and HCB cells as previously described. In addition, CASIN has been indicated as a noncovalent and reversible inhibitor in Xenopus egg extract. To confirm it, reversibility is monitored in this set of effector pull-down experiments. Four treatment groups are divided for both LDBM and HCB cells: (1) Serum starvation 20 h; (2) Serum starvation 20 h+growth factors stimulation; (3) Serum starvation 20 h+CASIN treatment (doses: 1, 2.5, 5, and 10 μM) 3 h+growth factor stimulation; (4) Serum starvation 20 h+CASIN treatment (doses: 1, 2.5, 5, and 10 μM) 3 h+wash the cells, and culture for another 3 h for recovery+growth factors stimulation. […] Bound proteins are analyzed by immunoblotting with respective antibodies (BD Biosciences). Furthermore, changes of downstream targets of Cdc42, Rac, and Rho under the four treatment groups are assessed. Phosphorylation status of PAK1, WASP (effectors of Cdc42), WAVE (effector of Rac), and ROCK (effector of Rho) are monitored by western blots using respective antibodies.
# Rac1 = target: T1, Rac1 (Homo sapiens, UniProt P63000); experiment: Rho GTPase effector pulldown in human CD34+ umbilical cord blood cells, Rac1; assay type: cell-based; conditions: human CD34^+ HCBs
# T1 construct: endogenous in cells; host or cells: human CD34+ umbilical cord blood cells (HCB)
# Description: To begin to study potential utility of CASIN in human hematopoietic stem cell mobilization, a series of cellular assays were carried out to determine the effects on human CD34^+ umbilical cord blood cells (HCBs). […] The effects of CASIN on human hematopoietic cell mobilization was therefore tested using a well established preclinical in vivo model (NOD/SCID-Hcb) of human hematopoietic function, where fresh CD34^+ hCB cells were transplanted into sub-lethally irradiated NOD/SCIDs by intrafemoral injection, and repopulated and maintained human hematopoietic reconstitution in the bone marrow of NOD/SCID recipient mice (FIG. 9b, FIG. 11) (Larochelle, A. et al. Nat Med 2, 1329-1337 (1996); Bhatia, M., et al. Proc Natl Acad Sci USA 94, 5320-5325 (1997)). Intravenous injections of CASIN were applied when human cells were well engrafted in the NOD/SCID recipients.
# To analyze the effects of CASIN on the formation of active GTP-bound Cdc42, RhoA, and Rac1, effector pulldown assays were carried out as described previously. Cdc42GAP^−/− MEF, LDBM, CD34^+ hCB cells were treated with CASIN at doses of 5-20 μM in parallel with vehicle control for 2 hrs after overnight starvation, and stimulated with cytokines subsequently. […]
# C57Bl/6 mice = experiment: Example 7 PK/PD analysis of HPC mobilization in C57Bl/6 mice; assay type: in vivo
# Description: The mice are i.p. administered with CASIN at 6 different doses (0.5, 1.0, 2.5, 5.0, 7.5, and 10 mg/Kg), and ˜1 ml blood are collected by cardiac puncture for PD and PK analysis predosing, 6, 12, 24, 36, 48, 60, and 72 h postdosing. 5 mice are used for each group. To do PK analysis, concentrations of CASIN in plasma are determined by high-pressure liquid chromatography (HPLC) with electrochemical detection, and then all compartmental and noncompartmental analyses are performed using WinNonlin Professional (version 2.0) software (Pharsight, Cary, N.C.). The maximum drug concentration in serum (Cmax) and the time to Cmax are determined directly from the concentration-time curves. Terminal elimination half-life is determined by linear regression of the log-transformed final concentration-time points. As for the PD analysis, the effects of CASIN on mobilization of CFU-GM, CFU-GEMM, BFU-E and CFU-E to the blood of C57Bl/6 mice are evaluated. By using the rest of blood, assays for CFU-GM, CFU-GEMM, BFU-E and CFU-E are performed using ingredients and cytokine combinations, and then the plot of CFU number versus time across the dose groups is drawn. In this way, the optimal dose and time for mobilization in C57Bl/6 mice are determined. […]
smiles,measurement,setting,value
OCCNC1CCCc2c1[nH]c1ccc(-c3ccccc3)cc21 (stereo not drawn) [CASIN],F-actin reorganization capacity of N-RasMA93 cells,N-RasMA93 cells,significantly impaired
same,activity of Cdc42,Cdc42,specifically inhibit the activity of Cdc42 in a dose-dependent manner
same,recovery of Cdc42 activity after wash,Cdc42,recovers 3 h after CASIN is washed away
same,Rac1 activity,Rac1,without affecting
same,mobilization after multiple injections one half-life time apart,C57Bl/6 mice; C57/B16,stronger mobilization effects than that of single CASIN injection
same,mobilization of HPCs (colony numbers versus dose),"C57Bl/6 mice; single i.p. dose, C57Bl/6 mice",dose-dependent pattern
